Assay results: patent US20260337177A1, “TEAD CORE INHIBITORS FOR CANCER THERAPEUTICS” (University of Florida Research Foundation, Incorporated, priority 2023, published 2026)

Legend:
Huh7 cells = test: Apoptosis by Annexin V/PI flow cytometry, Huh7; type: cell-based, human; details: 48 h
Description: In order to gain deeper insights into the underlying anticancer mechanism of compound 22, experiments were performed to validate whether the induction of G1 phase cells by compound 22 was linked to apoptosis. To achieve this, the cells treated with compound 22 were subjected to PI and FITC-annexin V staining to detect apoptotic cells. […] The proportions of total apoptosis including the early stage apoptosis and the later stage of apoptosis were 66.8%, and 83.5%, respectively, at concentrations of 5 and 10 μM. This trend was similarly observed in the case of HepG2 cells. […] The impact of compound 22 on inducing cell apoptosis was less pronounced in HepG2 cells compared to Huh7 cells, aligning with the outcomes of the cell cycle analysis, providing further coherence to the observed effects of compound 22 on these cell lines.
Apoptosis was detected using an Annexin V-FITC apoptosis detection kit (Thermo Fisher Scientific) following the manufacturer’ instructions. Briefly, about 50000 cells were suspended in 500 μl of binding buffer. The cells were incubated with 5 μl FITC-conjugated Annexin V for 15 minutes and incubated with 5 μl propidium Iodide staining solution for 15 minutes in darkness at room temperature. Cell apoptosis was then analyzed by flow cytometry using a FACSCalibur flow cytometer (Becton Dickinson, San Jose, CA).

HepG2 cells = test: Apoptosis by calcein AM and ethidium homodimer-1 staining, HepG2; type: cell-based, human
HB tumors = test: Murine hepatoblastoma (HB) model, HDTV injection of S127A-YAP1 and ΔN90-β-catenin; type: in vivo, C57BL6 mice
Description: Using this model, the inhibitory effect of YAP inhibitor compound 22 on HB development was examined. In brief, following HDTV injection, the co-expression of constitutively active S127A-YAP1 and ΔN90 deletion-mutant β-catenin (ΔN90-β-catenin) via Sleeping Beauty-mediated somatic integration led to HB development in mouse livers. Plasmids carrying T3EF1α-YAPS127A (20 μg), pCMV-sleeping beauty transposase (SB, 0.8 μg), and pT3-EF1α-ΔN90-β-catenin (20 μg) were extracted using the Endotoxin-Free Maxiprep kit (Qiagen), diluted in 2 ml 0.9% sodium chloride solution, and injected via hydrodynamic tail vein injection (HDTV) into C57BL6 mice (6 week-old, body weight of 20 g). compound 22 or mock control (twice a week for three months, IP injection) were applied two weeks post the HDTV injection until two days before sacrifice. Low dose group received […] body weight and high dose group received […] body weight.
Tissues harvested from mice were fixed in 4% paraformaldehyde PBS solution for 24 hours, embedded in paraffin, and sectioned (6 μm). Standard staining protocols were performed for IHC using an ABC kit from Vector lab (Vector Laboratories, Inc., CA). The primary antibody was mouse anti-Ki67 antibody (catalogNCL-L-Ki67-MM1, 1:100 dilution) from Leica Biosystems (Deer Park, IL). Stained sections were detected using a microscope (Leica, Germany).
For drug assessment in the murine HB model, plasmids carrying T3EF1α-YAPS127A (20 μg), pCMV-sleeping beauty transposase (SB, 0.8 μg), and pT3-EF1α-ΔN90-β-catenin (20 μg) from Addgene (Watertown, MA) were used. The plasmids were extracted using the Endotoxin-Free Maxiprep kit (Qiagen, Redwood City, CA), diluted in 2 ml 0.9% sodium chloride solution, and injected via hydrodynamic tail vein injection (HDTV) into C57BL6 mice (n=15, 6 week old). Three weeks post the HDTV injection, compound 22 ([…] body weight) or mock control were applied twice a week for total 9 weeks via IP injection. Two days post last drug treatment, mice were euthanized and tumor tissues were subjected to molecular and histological characterizations.

TEADs = test: TEAD-specific 8×GTIIC-luciferase reporter assay; type: cell-based
Description: A series of compounds featuring a chloromethyl ketone moiety were synthesized (Schemes 1-4). The inhibitory rate of this series of compounds was tested using 8×GTIIC-luciferase reporter assay at 10 μM.
Next, the inhibition of TEAD transcription activity of compounds was tested varying the dosage using the 8×GTIIC-luciferase reporter assay. […] The aim was to determine whether its inhibition of TEAD transcription can lead to downregulation of the YAP-TEAD target genes. CTGF is one of the best characterized (bona fide) target gene of YAP and TAZ.
To further investigate the mechanism of the inhibitory effect of compounds in Huh7 cells, TEADs specific luciferase reporter assays were performed with compounds 22 and 12 at several concentrations. […] TEAD downstream gene expression patterns were evaluated in liver cancer cells Huh7, which has been evidenced with relative high expression of YAP and TEAD2.
HEK 293T cells were plated at 2×10^4 cells/well in a 96 well microplate and were transfected with 50 ng of 8×GTIIC-luciferase plasmid (Addgene #34615) and 0.5 ng of pRL-CMV (Promega #E226A) by using lipofectamine 3000 (Life Technologies #L3000). The 8×GTIIc-luciferase reporter is a Yap/Taz-activity reporter containing eight TEAD consensus binding sequences. After 6 h, transfected cells were treated with various concentrations of compounds or DMSO control. Luciferase signals were measured using the Dual Luciferase Reporter Assay System (Promega, E1960) according to the manufacturer's instructions. Experiments were performed in triplicate and repeated at least three times.

YAP-TEAD = test: Co-immunoprecipitation of endogenous YAP and TEAD in NCI-H226 cells; type: cell-based
Description: To assess if compound 22 inhibits the interaction between YAP/TAZ and TEAD proteins within the cell, compound 22 was administered to NF2-deficient NCI-H226 cells for 24 hours. Subsequently, the endogenous TEAD protein was isolated through immunoprecipitation using a pan-TEAD antibody and examined the immunocomplexes for the presence of YAP/TAZ proteins using anti-YAP/TAZ antibodies (as depicted in FIG. 18).
[…] protein lysate extracted using lysis buffer were incubated with 5 μL pan-TEAD antibody (CST #13295, 33 g/ml) at 4 ° C overnight with rotation, and then incubated with 15 μL Protein G magnetic beads (Fisher #88847) at R.T. for 1 hour with rotation. After binding, beads were washed three times with lysis buffer and one time with ddH2O. IP samples were eluted using 1× gel loading buffer supplied with 20 mM DTT and boiled at 96 ° C for 10 min. […] protein lysate were used for input, and 3% IP flow-thru were used for binding efficiency control. *0 indicated DMSO control. For the detection process, primary antibodies used were: YAP/TAZ rabbit monoclonal antibody (mAb) at a dilution of 1:2000, CST #8418S; Pan-TEAD rabbit mAb at 1:2000, CST #13295S; and 3-actin mouse mAb at 1:8000, Sigma #A5316. Secondary antibodies applied in 1× TBST were: Rabbit IgG-HRP at 1:10000 and Mouse IgG-HRP also at 1:10000.

SMILES: O=C(CCl)c1c[nH]c2cc(Cl)c(OCc3cccc(C(F)(F)F)c3)cc12 [Compound 22, 2-chloro-1-(6-chloro-5-((3-(trifluoromethyl)benzyl)oxy)-1H-indol-3-yl)ethan-1-one]
- Proportion of total apoptosis (early + late), Huh7 (Huh7 cells; 5 μM): 66.8%
- Proportion of total apoptosis (early + late), Huh7 (Huh7 cells; 10 μM): 83.5%
- HepG2 cell apoptosis (HepG2 cells): promotes HepG2 cell apoptosis
- HB tumors, occurrence and size (HB tumors; 25 mg/kg body weight, twice a week for 9 weeks, IP): notable reduction in both the occurrence and size of HB tumors
- Number of proliferating cells (IHC) (HB tumors; 25 mg/kg, Cyclin D1 / Ki67 (FIG. 23B)): decreased number of proliferating cells
- Ccnd1, CTGF, Cyr61, Afp, and Gpc3 mRNAs in livers (HB tumors; real time qRT-PCR, 25 mg/kg): lower levels
- CTGF and Cyr61 proteins in livers (HB tumors; western blotting, 25 mg/kg): decreased CTGF and Cyr61
- inhibition at 10 µM (TEADs; 10 μM, 8×GTIIC-luciferase, read-out: Luciferase reporter assay inhibitory rate): 93.6%
- IC50 (TEADs; dose response, read-out: TEADs transcription inhibition IC50, luciferase reporter assay): 2.1 µM
- Co-IP of YAP with pan-TEAD antibody (YAP-TEAD; 1 μM, 24 hours): significantly diminished
- Interaction between YAP and TEAD (YAP-TEAD; "2.5 M", 24-hour treatment): almost entirely inhibited
